The test system of the assay is P. aeruginosa NCTC11454. The assay can be described thus: Antimicrobial susceptibility testing: 50% growth inhibitory concentration (IC50) determination. The class given is cell-based. To be noted: Pseudomonas aeruginosa, Iso-Sensitest broth, OD 600 nm every 20 minutes over 16h, growth inhibition during logarithmic growth. The procedure:
The in vitro antimicrobial activity of the compounds was alternatively determined according to the following procedure: The assay used a 10-points Iso-Sensitest broth medium to measure quantitatively the in vitro activity of the compounds against P. aeruginosa NCTC11454. Stock compounds in DMSO were serially twofold diluted (e.g. range from 50 to 0.097 μM final concentration) in 384 wells microtiter plates and inoculated with 49 μl the bacterial suspension in Iso-Sensitest medium to have a final cell concentration of ˜5×10^(5) CFU/ml in a final volume/well of 50 ul/well. Microtiter plates were incubated at 35±2° C. Bacterial cell growth was determined with the measurement of optical density at λ=600 nm each 20 minutes over a time course of 16h. Growth inhibition was calculated during the logarithmic growth of the bacterial cells with determination of the concentration inhibiting 50% (IC50) and 90% (IC90) of the growth. Table 2 provides the 50% growth inhibitory concentrations (IC50) in micromoles per liter of the compounds of present invention obtained against P. aeruginosa NCTC11454.

pIC50: −log10 of the molar value.

The pIC50 is the negative decadic logarithm of the IC50, by convention in mol/L.

Turning to `CN1C(=O)[C@H](CCCCN)NC(=O)[C@H](CCCN)NCc2ccccc2Sc2ccc(Cl)cc2CNC(=O)[C@@H]1Cc1c[nH]c2ccccc12` [Example 1, (12S,15S,18S)-15-(4-Amino-butyl)-18-(3-amino-propyl)-6-chloro-12-(1H-indol-3-ylmethyl)-13-methyl-2-thia-10,13,16,19-tetraaza-tricyclo[19.4.0.0*3,8*]pentacosa-1(21),3,5,7,22,24-hexaene-11,14,17-trione], the pIC50 is 4.50.

In turn, `CN1C(=O)[C@H](CCCCN)NC(=O)[C@H](CCCN)NCc2ccccc2Sc2cc(C(F)(F)F)ccc2CNC(=O)[C@@H]1Cc1c[nH]c2ccccc12` [Example 4, (12S,15S,18S)-15-(4-Amino-butyl)-18-(3-amino-propyl)-12-(1H-indol-3-ylmethyl)-13-methyl-5-trifluoromethyl-2-thia-10,13,16,19-tetraaza-tricyclo[19.4.0.0*3,8*]pentacosa-1(21),3,5,7,22,24-hexaene-11,14,17-trione] gave a negative logarithm of the IC50 (pIC50) of 4.90.

Turning to `CN1C(=O)[C@H](CCCCN)NC(=O)[C@H](CCCN)NCc2ccccc2Sc2ccccc2CNC(=O)[C@@H]1Cc1c[nH]c2cc(Cl)ccc12` [Example 5, (12S,15S,18S)-15-(4-Amino-butyl)-18-(3-amino-propyl)-12-(6-chloro-1H-indol-3-ylmethyl)-13-methyl-2-thia-10,13,16,19-tetraaza-tricyclo[19.4.0.0*3,8*]pentacosa-1(21),3,5,7,22,24-hexaene-11,14,17-trione], the pIC50 was 4.61.

The molecule `CN1C(=O)[C@H](CCCCN)NC(=O)[C@H](CCCN)NCc2ccccc2Sc2ccc(Cl)cc2CNC(=O)[C@@H]1Cc1cn(C)c2ccccc12` [Example 6, (12S,15S,18S)-15-(4-Amino-butyl)-18-(3-amino-propyl)-6-chloro-13-methyl-12-(1-methyl-1H-indol-3-ylmethyl)-2-thia-10,13,16,19-tetraaza-tricyclo[19.4.0.0*3,8*]pentacosa-1(21),3,5,7,22,24-hexaene-11,14,17-trione] showed a negative logarithm of the IC50 (pIC50) of 4.64.

`CN1C(=O)[C@H](CCCCN)NC(=O)[C@H](CCCN)NCc2ccccc2Sc2ccc(Cl)cc2CNC(=O)[C@@H]1Cc1c[nH]c2cc(Cl)ccc12` [Example 7, (12S,15S,18S)-15-(4-Amino-butyl)-18-(3-amino-propyl)-6-chloro-12-(6-chloro-1H-indol-3-ylmethyl)-13-methyl-2-thia-10,13,16,19-tetraaza-tricyclo[19.4.0.0*3,8*]pentacosa-1(21),3,5,7,22,24-hexaene-11,14,17-trione] showed a negative-log IC50 (pIC50) of 5.12.

On to `CN1C(=O)[C@H](CCCCN)NC(=O)[C@H](CCCN)NCc2ccccc2Sc2ccc(Cl)cc2CNC(=O)[C@@H]1Cc1cn(C)c2cc(Cl)ccc12` [Example 8, (12S,15S,18S)-15-(4-Amino-butyl)-18-(3-amino-propyl)-6-chloro-12-(6-chloro-1-methyl-1H-indol-3-ylmethyl)-13-methyl-2-thia-10,13,16,19-tetraaza-tricyclo[19.4.0.0*3,8*]pentacosa-1(21),3,5,7,22,24-hexaene-11,14,17-trione], for which the negative logarithm of the IC50 (pIC50) was 4.88.

Take `CN1C(=O)[C@H](CCCCN)NC(=O)[C@H](CCCN)NCc2ccccc2Sc2ccc(Cl)c(Cl)c2CNC(=O)[C@@H]1Cc1c[nH]c2ccccc12` [Example 9, (12S,15S,18S)-15-(4-Amino-butyl)-18-(3-amino-propyl)-6,7-dichloro-12-(1H-indol-3-ylmethyl)-13-methyl-2-thia-10,13,16,19-tetraaza-tricyclo[19.4.0.0*3,8*]pentacosa-1(25),3,5,7,21,23-hexaene-11,14,17-trione]: the negative logarithm of the IC50 (pIC50) was 4.61.

As to `CN1C(=O)[C@H](CCCCN)NC(=O)[C@H](CCCN)NCc2ccccc2Sc2c(Cl)ccc(C(F)(F)F)c2CNC(=O)[C@@H]1Cc1c[nH]c2ccccc12` [Example 10, (12S,15S,18S)-15-(4-Amino-butyl)-18-(3-amino-propyl)-4-chloro-12-(1H-indol-3-ylmethyl)-13-methyl-7-trifluoromethyl-2-thia-10,13,16,19-tetraaza-tricyclo[19.4.0.0*3,8*]pentacosa-1(25),3,5,7,21,23-hexaene-11,14,17-trione], the negative-log IC50 (pIC50) was 4.97.

The molecule `Cc1cc(Cl)cc2c1Sc1ccccc1CN[C@@H](CCCN)C(=O)N[C@@H](CCCCN)C(=O)N(C)[C@@H](Cc1c[nH]c3ccccc13)C(=O)NC2` [Example 14, (12S,15S,18S)-15-(4-Amino-butyl)-18-(3-amino-propyl)-6-chloro-12-(1H-indol-3-ylmethyl)-4,13-dimethyl-2-thia-10,13,16,19-tetraaza-tricyclo[19.4.0.0*3,8*]pentacosa-1(25),3,5,7,21,23-hexaene-11,14,17-trione] showed a pIC50 of 4.61.

Consider `CN1C(=O)[C@H](CCCCN)NC(=O)[C@H](CCCN)NCc2cccnc2Sc2c(cc(-c3ccccc3)cc2C(F)(F)F)CNC(=O)[C@@H]1Cc1c[nH]c2ccccc12` [Example 22, (11S,14S,17S)-14-(4-Amino-butyl)-11-(3-amino-propyl)-17-(1H-indol-3-ylmethyl)-16-methyl-23-phenyl-25-trifluoromethyl-2-thia-4,10,13,16,19-pentaaza-tricyclo[19.4.0.0*3,8*]pentacosa-1(25),3,5,7,21,23-hexaene-12,15,18-trione], for which the negative logarithm of the IC50 (pIC50) is 5.00.

`CN1C(=O)[C@H](CCCCN)NC(=O)[C@H](CCCN)NCc2ncccc2Sc2c(Cl)cc(C(F)(F)F)cc2CNC(=O)[C@@H]1Cc1c[nH]c2ccccc12` [Example 24, (11S,14S,17S)-14-(4-Amino-butyl)-11-(3-amino-propyl)-25-chloro-17-(1H-indol-3-ylmethyl)-16-methyl-23-trifluoromethyl-2-thia-7,10,13,16,19-pentaaza-tricyclo[19.4.0.0*3,8*]pentacosa-1(25),3,5,7,21,23-hexaene-12,15,18-trione] gave a pIC50 of 4.65.

`NCCCC[C@@H]1NC(=O)[C@@H](CCCN)NCc2cccnc2Sc2c(ccc(-c3ccccc3)c2Cl)CNC(=O)[C@H](Cc2c[nH]c3ccccc23)NC1=O` [Example 25, (11R,14S,17S)-14-(4-Amino-butyl)-11-(3-amino-propyl)-25-chloro-17-(1H-indol-3-ylmethyl)-24-phenyl-2-thia-4,10,13,16,19-pentaaza-tricyclo[9.4.0.0*3,8*]pentacosa-1(25),3,5,7,21,23-hexaene-12,15,18-trione] gave a negative logarithm of the IC50 (pIC50) of 4.60.

`NCCCC[C@@H]1NC(=O)[C@H](CCCN)NCc2cccnc2Sc2c(ccc(-c3ccccc3)c2Cl)CNC(=O)[C@H](Cc2c[nH]c3ccccc23)NC1=O` [Example 26, (11S,14S,17S)-14-(4-Amino-butyl)-11-(3-amino-propyl)-25-chloro-17-(1H-indol-3-ylmethyl)-24-phenyl-2-thia-4,10,13,16,19-pentaaza-tricyclo[9.4.0.0*3,8*]pentacosa-1(25),3,5,7,21,23-hexaene-12,15,18-trione] showed a pIC50 of 4.63.

In the case of `CN1C(=O)[C@H](CCCCN)NC(=O)[C@@H](CCCN)NCc2cccnc2Sc2c(ccc(-c3ccccc3)c2Cl)CNC(=O)[C@@H]1Cc1c[nH]c2ccccc12` [Example 27, (11R,14S,17S)-14-(4-Amino-butyl)-11-(3-amino-propyl)-25-chloro-17-(1H-indol-3-ylmethyl)-16-methyl-24-phenyl-2-thia-4,10,13,16,19-pentaaza-tricyclo[19.4.0.0*3,8*]pentacosa-1(25),3,5,7,21,23-hexaene-12,15,18-trione], the negative logarithm of the IC50 (pIC50) was 4.95.

`CN1C(=O)[C@H](CCCN)NC(=O)[C@H](CCCN)NCc2ccccc2Sc2c(Cl)cc(Cl)cc2CNC(=O)[C@@H]1Cc1c[nH]c2ccccc12` [Example 30, (12S,15S,18S)-15,18-Bis-(3-amino-propyl)-4,6-dichloro-12-(1H-indol-3-ylmethyl)-13-methyl-2-thia-10,13,16,19-tetraaza-tricyclo[19.4.0.0*3,8*]pentacosa-1(25),3,5,7,21,23-hexaene-11,14,17-trione]: the pIC50 is 4.95.

With `CN1C(=O)[C@H](CCCCN)NC(=O)[C@H](CCCN)NCc2cccnc2Sc2c(Cl)ccc(C(F)(F)F)c2CNC(=O)[C@@H]1Cc1c[nH]c2ccc(Cl)cc12` [Example 31, (11S,14S,17S)-14-(4-Amino-butyl)-11-(3-amino-propyl)-25-chloro-17-(5-chloro-1H-indol-3-ylmethyl)-16-methyl-22-trifluoromethyl-2-thia-4,10,13,16,19-pentaaza-tricyclo[19.4.0.0*3,8*]pentacosa-1(25),3,5,7,21,23-hexaene-12,15,18-trione], the pIC50 is 4.60.

On to `CN1C(=O)[C@H](CCCCN)NC(=O)[C@H](CCCN)NCc2ccccc2Sc2c(Cl)cc(-c3ccccc3)cc2CNC(=O)[C@@H]1Cc1c[nH]c2ccccc12` [Example 32, (12S,15S,18S)-15-(4-Amino-butyl)-18-(3-amino-propyl)-4-chloro-12-(1H-indol-3-ylmethyl)-13-methyl-6-phenyl-2-thia-111,13,16,19-tetraaza-tricyclo[19.4.0.0*3,8*]pentacosa-1(25),3,5,7,21,23-hexaene-11,14,17-trione], for which the negative-log IC50 (pIC50) was 5.15.

For the molecule `CN1C(=O)[C@H](CCCCN)NC(=O)[C@H](CCCN)NCc2ccccc2Sc2c(Cl)cc(-c3ccccc3Cl)cc2CNC(=O)[C@@H]1Cc1c[nH]c2ccccc12` [Example 33, (12S,15S,18S)-15-(4-Amino-butyl)-18-(3-amino-propyl)-4-chloro-6-(2-chloro-phenyl)-12-(1H-indol-3-ylmethyl)-13-methyl-2-thia-10,13,16,19-tetraaza-tricyclo[19.4.0.0*3,8*]pentacosa-1(25),3,5,7,21,23-hexaene-11,14,17-trione], the pIC50 is 5.04.

These data come from US11066443B2 (Hoffmann-La Roche Inc., priority 2017, dated 2021).
